Experimental data reported in paper PMC6219668 (Oncotarget, 2018).

Tested on: panel of nearly 500 cancer cell lines
Test: Cancer Cell Line Encyclopedia profiling, 3-day CellTiter-Glo
Type: cell-based
Parameters: Amax: unit not given here

Compound: CN(C)C(=O)c1cc2cnc(Nc3ccc(N4CCNCC4)cn3)nc2n1C1CCCC1 [Ribociclib, 7-cyclopentyl-2-(5-piperazin-1-yl-pyridin-2-ylamino)-7H-pyrrolo[2,3-d]pyrimidine-6-carboxylic acid dimethylamide]
- Amax (8mgba (central_nervous_system)): 0.325
- Amax (769p (kidney)): -56.5199
- Amax (786o (kidney)): 2.199
- Amax (8305c (thyroid)): -43.2823
- Amax (8505c (thyroid)): -10.3812
- EC50 (CMK-86): 0.195 µM
- IC50 (CMK-86): 0.513 µM
- EC50 (COLO 699): 0.00254 µM
- IC50 (COLO 699): > 8 µM
- EC50 (COV318): > 8 µM
- IC50 (COV318): > 8 µM
- EC50 (COV504): > 8 µM
- IC50 (COV504): > 8 µM
- EC50 (Fu97): 0.483 µM
- IC50 (Fu97): > 8 µM
- EC50 (GLC82): > 8 µM
- IC50 (GLC82): > 8 µM
- EC50 (HCC15): > 8 µM
- IC50 (HCC15): > 8 µM
- EC50 (HEC-6): > 8 µM
- IC50 (HEC-6): > 8 µM
- EC50 (HEC-251): > 8 µM
- IC50 (HEC-251): > 8 µM
- EC50 (HEY A8): 2.2 µM
- IC50 (HEY A8): > 8 µM
- EC50 (Homo sapiens, 8-MG-BA): > 8 µM
- IC50 (Homo sapiens, 8-MG-BA): > 8 µM
- EC50 (Homo sapiens, 22Rv1): 0.99 µM
- IC50 (Homo sapiens, 22Rv1): 3.81 µM
- EC50 (Homo sapiens, 639-V): > 8 µM
- IC50 (Homo sapiens, 639-V): > 8 µM
- EC50 (Homo sapiens, 769-P): 1.14 µM
- IC50 (Homo sapiens, 769-P): 4.43 µM
- EC50 (Homo sapiens, 786-0): > 8 µM
- IC50 (Homo sapiens, 786-0): > 8 µM
- EC50 (Homo sapiens, 8305C): > 8 µM
- IC50 (Homo sapiens, 8305C): > 8 µM
- EC50 (Homo sapiens, 8505C): 1.87 µM
- IC50 (Homo sapiens, 8505C): > 8 µM
- EC50 (Homo sapiens, A 172): > 8 µM
- IC50 (Homo sapiens, A 172): > 8 µM
- EC50 (Homo sapiens, A204): 0.0389 µM
- IC50 (Homo sapiens, A204): > 8 µM
- EC50 (Homo sapiens, A253): > 8 µM
- IC50 (Homo sapiens, A253): > 8 µM
- EC50 (Homo sapiens, A549): 0.801 µM
- IC50 (Homo sapiens, A549): > 8 µM
- EC50 (Homo sapiens, A673): 0.568 µM
- IC50 (Homo sapiens, A673): > 8 µM
- EC50 (Homo sapiens, A2058): > 8 µM
- IC50 (Homo sapiens, A2058): > 8 µM
- EC50 (Homo sapiens, A2780): 0.201 µM
- IC50 (Homo sapiens, A2780): 4.04 µM
- EC50 (Homo sapiens, A-375): > 8 µM
- IC50 (Homo sapiens, A-375): 8 µM
- EC50 (Homo sapiens, ACHN): > 8 µM
- IC50 (Homo sapiens, ACHN): > 8 µM
- EC50 (Homo sapiens, AMO1): > 8 µM
- IC50 (Homo sapiens, AMO1): > 8 µM
- EC50 (Homo sapiens, AN3-CA): > 8 µM
- IC50 (Homo sapiens, AN3-CA): > 8 µM
- EC50 (Homo sapiens, ASPC1): > 8 µM
- IC50 (Homo sapiens, ASPC1): > 8 µM
- EC50 (Homo sapiens, AU565): > 8 µM
- IC50 (Homo sapiens, AU565): > 8 µM
- EC50 (Homo sapiens, AZ-521): > 8 µM
- IC50 (Homo sapiens, AZ-521): > 8 µM
- EC50 (Homo sapiens, BCPAP): > 8 µM
- IC50 (Homo sapiens, BCPAP): > 8 µM
- EC50 (Homo sapiens, BFTC-909): 3.38 µM
- IC50 (Homo sapiens, BFTC-909): > 8 µM
- EC50 (Homo sapiens, BGC-823): > 8 µM
- IC50 (Homo sapiens, BGC-823): > 8 µM
- EC50 (Homo sapiens, BL-41): > 8 µM
- IC50 (Homo sapiens, BL-41): > 8 µM
- EC50 (Homo sapiens, BT-474): > 8 µM
- IC50 (Homo sapiens, BT-474): > 8 µM
- EC50 (Homo sapiens, BT-549): > 8 µM
- IC50 (Homo sapiens, BT-549): > 8 µM
- EC50 (Homo sapiens, BXPC-3): > 8 µM
- IC50 (Homo sapiens, BXPC-3): > 8 µM
- EC50 (Homo sapiens, C2BBe1): > 8 µM
- IC50 (Homo sapiens, C2BBe1): > 8 µM
- EC50 (Homo sapiens, CAKI-2): > 8 µM
- IC50 (Homo sapiens, CAKI-2): > 8 µM
- EC50 (Homo sapiens, CAL-12T): 4.08 µM
- IC50 (Homo sapiens, CAL-12T): 4.08 µM
- EC50 (Homo sapiens, CAL-27): 3.83 µM
- IC50 (Homo sapiens, CAL-27): > 8 µM
- EC50 (Homo sapiens, CAL-85-1): > 8 µM
- IC50 (Homo sapiens, CAL-85-1): > 8 µM
- EC50 (Homo sapiens, CAMA-1): > 8 µM
- IC50 (Homo sapiens, CAMA-1): > 8 µM
- EC50 (Homo sapiens, CHL-1): > 8 µM
- IC50 (Homo sapiens, CHL-1): > 8 µM
- EC50 (Homo sapiens, CHP-212): 0.126 µM
- IC50 (Homo sapiens, CHP-212): 1.84 µM
- EC50 (Homo sapiens, COLO 201): > 8 µM
- IC50 (Homo sapiens, COLO 201): > 8 µM
- EC50 (Homo sapiens, COLO 205): 1.24 µM
- IC50 (Homo sapiens, COLO 205): 3.46 µM
- EC50 (Homo sapiens, COLO 320): > 8 µM
- IC50 (Homo sapiens, COLO 320): > 8 µM
- EC50 (Homo sapiens, COLO-678): 0.475 µM
- IC50 (Homo sapiens, COLO-678): > 8 µM
- EC50 (Homo sapiens, COLO-679): 1.03 µM
- IC50 (Homo sapiens, COLO-679): > 8 µM
- EC50 (Homo sapiens, COLO-741): 2.13 µM
- IC50 (Homo sapiens, COLO-741): > 8 µM
- EC50 (Homo sapiens, COR-L23): > 8 µM
- IC50 (Homo sapiens, COR-L23): > 8 µM
- EC50 (Homo sapiens, COR-L105): > 8 µM
- IC50 (Homo sapiens, COR-L105): > 8 µM
- EC50 (Homo sapiens, Calu-1): > 8 µM
- IC50 (Homo sapiens, Calu-1): > 8 µM
- EC50 (Homo sapiens, Calu-3): > 8 µM
- IC50 (Homo sapiens, Calu-3): > 8 µM
- EC50 (Homo sapiens, Calu-6): 1.48 µM
- IC50 (Homo sapiens, Calu-6): > 8 µM
- EC50 (Homo sapiens, Capan-2): > 8 µM
- IC50 (Homo sapiens, Capan-2): > 8 µM
- EC50 (Homo sapiens, DBTRG-05MG): 0.347 µM
- IC50 (Homo sapiens, DBTRG-05MG): > 8 µM
- EC50 (Homo sapiens, DMS-114): 0.112 µM
- IC50 (Homo sapiens, DMS-114): > 8 µM
- EC50 (Homo sapiens, DOHH-2): 0.122 µM
- IC50 (Homo sapiens, DOHH-2): > 8 µM
- EC50 (Homo sapiens, DOV13): > 8 µM
- IC50 (Homo sapiens, DOV13): > 8 µM
- EC50 (Homo sapiens, DU-145): > 8 µM
- IC50 (Homo sapiens, DU-145): > 8 µM
- EC50 (Homo sapiens, DV-90): 0.00743 µM
- IC50 (Homo sapiens, DV-90): > 8 µM
- EC50 (Homo sapiens, Daoy): > 8 µM
- IC50 (Homo sapiens, Daoy): > 8 µM
- EC50 (Homo sapiens, Detroit 562): > 8 µM
- IC50 (Homo sapiens, Detroit 562): > 8 µM
- EC50 (Homo sapiens, EBC-1): 0.44 µM
- IC50 (Homo sapiens, EBC-1): > 8 µM
- EC50 (Homo sapiens, EFE-184): > 8 µM
- IC50 (Homo sapiens, EFE-184): > 8 µM
- EC50 (Homo sapiens, EFM-19): 0.0482 µM
- IC50 (Homo sapiens, EFM-19): > 8 µM
- EC50 (Homo sapiens, EFO-21): > 8 µM
- IC50 (Homo sapiens, EFO-21): > 8 µM
- EC50 (Homo sapiens, EFO-27): > 8 µM
- IC50 (Homo sapiens, EFO-27): > 8 µM
- EC50 (Homo sapiens, ESS-1): 0.867 µM
- IC50 (Homo sapiens, ESS-1): > 8 µM
- EC50 (Homo sapiens, FaDu): > 8 µM
- IC50 (Homo sapiens, FaDu): > 8 µM
- EC50 (Homo sapiens, G-361): > 8 µM
- IC50 (Homo sapiens, G-361): > 8 µM
- EC50 (Homo sapiens, G-401): 0.00888 µM
- IC50 (Homo sapiens, G-401): > 8 µM
- EC50 (Homo sapiens, G-402): 0.467 µM
- IC50 (Homo sapiens, G-402): 2.05 µM
- EC50 (Homo sapiens, GAMG): > 8 µM
- IC50 (Homo sapiens, GAMG): > 8 µM
- EC50 (Homo sapiens, GCIY): > 8 µM
- IC50 (Homo sapiens, GCIY): > 8 µM
- EC50 (Homo sapiens, GMS-10): > 8 µM
- IC50 (Homo sapiens, GMS-10): > 8 µM
- EC50 (Homo sapiens, Granta-519): > 8 µM
- IC50 (Homo sapiens, Granta-519): > 8 µM
- EC50 (Homo sapiens, HCC44): 1.59 µM
- IC50 (Homo sapiens, HCC44): > 8 µM
- EC50 (Homo sapiens, HCC70): > 8 µM
- IC50 (Homo sapiens, HCC70): > 8 µM
- EC50 (Homo sapiens, HCC78): > 8 µM
- IC50 (Homo sapiens, HCC78): > 8 µM
- EC50 (Homo sapiens, HCC827): > 8 µM
- IC50 (Homo sapiens, HCC827): > 8 µM
- EC50 (Homo sapiens, HCC1187): > 8 µM
- IC50 (Homo sapiens, HCC1187): > 8 µM
- EC50 (Homo sapiens, HCC1395): > 8 µM
- IC50 (Homo sapiens, HCC1395): > 8 µM
- EC50 (Homo sapiens, HCC1569): > 8 µM
- IC50 (Homo sapiens, HCC1569): > 8 µM
- EC50 (Homo sapiens, HCC1806): > 8 µM
- IC50 (Homo sapiens, HCC1806): > 8 µM
- EC50 (Homo sapiens, HCC1954): > 8 µM
- IC50 (Homo sapiens, HCC1954): > 8 µM
- EC50 (Homo sapiens, HCC2935): > 8 µM
- IC50 (Homo sapiens, HCC2935): > 8 µM
- EC50 (Homo sapiens, HCC4006): > 8 µM
- IC50 (Homo sapiens, HCC4006): > 8 µM
- EC50 (Homo sapiens, HCT-15): 4.53 µM
- IC50 (Homo sapiens, HCT-15): > 8 µM
- EC50 (Homo sapiens, HCT-116): > 8 µM
- IC50 (Homo sapiens, HCT-116): > 8 µM
- EC50 (Homo sapiens, HDQ-P1): 0.506 µM
- IC50 (Homo sapiens, HDQ-P1): > 8 µM
- EC50 (Homo sapiens, HEC-1-A): > 8 µM
- IC50 (Homo sapiens, HEC-1-A): > 8 µM
- EC50 (Homo sapiens, HEC-1B): 0.0275 µM
- IC50 (Homo sapiens, HEC-1B): > 8 µM
- EC50 (Homo sapiens, HEL 92.1.7): > 8 µM
- IC50 (Homo sapiens, HEL 92.1.7): > 8 µM
- EC50 (Homo sapiens, HGC-27): 0.188 µM
- IC50 (Homo sapiens, HGC-27): 0.534 µM
- EC50 (Homo sapiens, HMCB): > 8 µM
- IC50 (Homo sapiens, HMCB): > 8 µM
- EC50 (Homo sapiens, HPAC): 2.67 µM
- IC50 (Homo sapiens, HPAC): 2.67 µM
